# How the values were obtained:
# K-562 = details: K-562, Leukemia; for CC50: read-out: 50% lethal concentration (LC50)
# T-47D = details: for GI50 / Total growth inhibition (TGI): Breast; for CC50: read-out: 50% lethal concentration (LC50), Breast
# HL-60(TB) = details: for GI50 / Total growth inhibition (TGI): Leukemia; for CC50: read-out: 50% lethal concentration (LC50), Leukemia
# A498 = details: A498, Renal; for CC50: read-out: 50% lethal concentration (LC50)
# U251 = details: U251, CNS
# LOX IMVI = details: for GI50 / Total growth inhibition (TGI): Melanoma; for CC50: read-out: 50% lethal concentration (LC50), Melanoma
# HOP-92 = details: for Total growth inhibition (TGI) / CC50: HOP-92, Non-Small Cell Lung; for GI50: HOP-92, Non-Small-Cell Lung; for CC50: read-out: 50% lethal concentration (LC50)
# NCI-H23 = details: for Total growth inhibition (TGI) / CC50: NCI-H23, Non-Small Cell Lung; for GI50: NCI-H23, Non-Small-Cell Lung; for CC50: read-out: 50% lethal concentration (LC50)
# HS 578T = details: for GI50 / Total growth inhibition (TGI): Breast; for CC50: read-out: 50% lethal concentration (LC50), Breast
# M14 = type: cell-based; details: M14, Melanoma
# CCRF-CEM = details: for GI50 / Total growth inhibition (TGI): Leukemia; for CC50: read-out: 50% lethal concentration (LC50), Leukemia
# SR = details: for GI50 / Total growth inhibition (TGI): Leukemia; for CC50: read-out: 50% lethal concentration (LC50), Leukemia
# SN12C = details: for GI50 / Total growth inhibition (TGI): Renal; for CC50: read-out: 50% lethal concentration (LC50), Renal
# SNB-75 = details: SNB-75, CNS; for CC50: read-out: 50% lethal concentration (LC50)
# BT-549 = type: cell-based; details: BT-549, Breast
# SNB-19 = type: cell-based; details: SNB-19, CNS
# HT29 = details: HT29, Colon; for CC50: read-out: 50% lethal concentration (LC50)
# TK-10 = type: cell-based; details: TK-10, Renal
# COLO 205 = details: COLO 205, Colon
# A549/ATCC = details: for Total growth inhibition (TGI): Non-Small Cell Lung; for GI50: Non-Small-Cell Lung; for CC50: read-out: 50% lethal concentration (LC50), Non-Small Cell Lung
# PC-3 = details: PC-3, Prostate; for CC50: read-out: 50% lethal concentration (LC50)
# UACC-62 = details: UACC-62, Melanoma; for CC50: read-out: 50% lethal concentration (LC50)
# OVCAR-8 = details: OVCAR-8, Ovarian; for CC50: read-out: 50% lethal concentration (LC50)
# UO-31 = details: UO-31, Renal; for CC50: read-out: 50% lethal concentration (LC50)
# NCI/ADR-RES = details: for GI50 / Total growth inhibition (TGI): Ovarian; for CC50: read-out: 50% lethal concentration (LC50), Ovarian
# MALME-3M = details: Melanoma
# SK-MEL-2 = details: SK-MEL-2, Melanoma
# UACC-257 = details: UACC-257, Melanoma
# NCI-H522 = details: for Total growth inhibition (TGI) / CC50: NCI-H522, Non-Small Cell Lung; for GI50: NCI-H522, Non-Small-Cell Lung; for CC50: read-out: 50% lethal concentration (LC50)
# HOP-62 = details: for Total growth inhibition (TGI) / CC50: HOP-62, Non-Small Cell Lung; for GI50: HOP-62, Non-Small-Cell Lung; for CC50: read-out: 50% lethal concentration (LC50)
# SW-620 = details: SW-620, Colon; for CC50: read-out: 50% lethal concentration (LC50)
# OVCAR-4 = type: cell-based; details: OVCAR-4, Ovarian; for CC50: read-out: 50% lethal concentration (LC50)
structure (smiles),measurement,setting,value
C=C1CCC2C3(C)COC(c4cn(-c5ccccc5)nc4-c4cccc(F)c4)OC3CCC2(C)C1CC=C1C(=O)OCC1O (stereo not shown) [1c],GI50,K-562,2.14 µM
same,Total growth inhibition (TGI),K-562,> 100 µM
same,CC50,K-562,> 100 µM
same,GI50,T-47D,1.39 µM
same,Total growth inhibition (TGI),T-47D,4.07 µM
same,CC50,T-47D,> 100 µM
same,GI50,HL-60(TB),0.76 µM
same,Total growth inhibition (TGI),HL-60(TB),> 100 µM
same,CC50,HL-60(TB),> 100 µM
same,GI50,A498,4.13 µM
same,Total growth inhibition (TGI),A498,18.4 µM
same,CC50,A498,53.3 µM
same,GI50,U251,1.81 µM
same,Total growth inhibition (TGI),U251,5.61 µM
same,GI50,LOX IMVI,1.44 µM
same,Total growth inhibition (TGI),LOX IMVI,2.75 µM
same,CC50,LOX IMVI,5.25 µM
same,Total growth inhibition (TGI),HOP-92,3.03 µM
same,GI50,HOP-92,1.53 µM
same,CC50,HOP-92,6.02 µM
same,Total growth inhibition (TGI),NCI-H23,3.57 µM
same,GI50,NCI-H23,1.79 µM
same,CC50,NCI-H23,7.09 µM
same,GI50,HS 578T,1.66 µM
same,Total growth inhibition (TGI),HS 578T,3.18 µM
same,CC50,HS 578T,6.12 µM
same,GI50,M14,1.75 µM
same,Total growth inhibition (TGI),M14,3.59 µM
same,GI50,CCRF-CEM,2.06 µM
same,Total growth inhibition (TGI),CCRF-CEM,> 100 µM
same,CC50,CCRF-CEM,> 100 µM
same,GI50,SR,2.2 µM
same,Total growth inhibition (TGI),SR,> 100 µM
same,CC50,SR,> 100 µM
same,GI50,SN12C,1.59 µM
same,Total growth inhibition (TGI),SN12C,3.42 µM
same,CC50,SN12C,7.34 µM
same,Total growth inhibition (TGI),SNB-75,3.55 µM
same,CC50,SNB-75,5.82 µM
same,GI50,BT-549,1.3 µM
same,Total growth inhibition (TGI),BT-549,3.01 µM
same,Total growth inhibition (TGI),SNB-19,2.72 µM
same,GI50,HT29,1.7 µM
same,Total growth inhibition (TGI),HT29,4.51 µM
same,CC50,HT29,> 100 µM
same,GI50,TK-10,1.41 µM
same,GI50,COLO 205,2.06 µM
same,Total growth inhibition (TGI),COLO 205,4.65 µM
same,Total growth inhibition (TGI),A549/ATCC,25.3 µM
same,GI50,A549/ATCC,3.88 µM
same,CC50,A549/ATCC,> 100 µM
same,GI50,PC-3,1.97 µM
same,Total growth inhibition (TGI),PC-3,4.56 µM
same,CC50,PC-3,> 100 µM
same,GI50,UACC-62,1.65 µM
same,Total growth inhibition (TGI),UACC-62,3.21 µM
same,CC50,UACC-62,6.22 µM
same,GI50,OVCAR-8,1.77 µM
same,Total growth inhibition (TGI),OVCAR-8,3.88 µM
same,CC50,OVCAR-8,8.5 µM
same,GI50,UO-31,1.78 µM
same,Total growth inhibition (TGI),UO-31,2.77 µM
same,CC50,UO-31,5.46 µM
same,GI50,NCI/ADR-RES,1.77 µM
same,Total growth inhibition (TGI),NCI/ADR-RES,3.99 µM
same,CC50,NCI/ADR-RES,8.99 µM
same,GI50,MALME-3M,1.87 µM
same,Total growth inhibition (TGI),MALME-3M,3.5 µM
same,GI50,SK-MEL-2,1.79 µM
same,Total growth inhibition (TGI),SK-MEL-2,3.29 µM
same,GI50,UACC-257,1.93 µM
same,Total growth inhibition (TGI),UACC-257,3.87 µM
same,Total growth inhibition (TGI),NCI-H522,3.08 µM
same,GI50,NCI-H522,1.52 µM
same,CC50,NCI-H522,6.24 µM
same,Total growth inhibition (TGI),HOP-62,3.86 µM
same,GI50,HOP-62,1.74 µM
same,CC50,HOP-62,8.55 µM
same,GI50,SW-620,5.71 µM
same,Total growth inhibition (TGI),SW-620,> 100 µM
same,CC50,SW-620,> 100 µM
same,GI50,OVCAR-4,1.74 µM
same,Total growth inhibition (TGI),OVCAR-4,4.27 µM
same,CC50,OVCAR-4,> 100 µM
C=C1CCC2C3(C)COC(c4cn(-c5ccccc5)nc4-c4ccc(Cl)cc4)OC3CCC2(C)C1CC=C1C(=O)OCC1O (stereo not shown) [1g],GI50,K-562,3.67 µM
same,Total growth inhibition (TGI),K-562,> 100 µM
same,CC50,K-562,> 100 µM
same,GI50,T-47D,1.31 µM
same,Total growth inhibition (TGI),T-47D,3.6 µM
same,CC50,T-47D,> 100 µM
same,GI50,HL-60(TB),2.67 µM
same,Total growth inhibition (TGI),HL-60(TB),> 100 µM
same,CC50,HL-60(TB),> 100 µM
same,GI50,A498,5.2 µM
same,Total growth inhibition (TGI),A498,19 µM
same,CC50,A498,53.7 µM
same,GI50,U251,2.39 µM
same,Total growth inhibition (TGI),U251,3.19 µM
same,GI50,LOX IMVI,1.58 µM
same,Total growth inhibition (TGI),LOX IMVI,2.94 µM
same,CC50,LOX IMVI,5.48 µM
same,Total growth inhibition (TGI),HOP-92,3.08 µM
same,GI50,HOP-92,1.5 µM
same,CC50,HOP-92,6.32 µM
same,Total growth inhibition (TGI),NCI-H23,3.59 µM
same,GI50,NCI-H23,1.73 µM
same,CC50,NCI-H23,7.45 µM
same,GI50,HS 578T,1.75 µM
same,Total growth inhibition (TGI),HS 578T,3.24 µM
same,CC50,HS 578T,6.45 µM
same,GI50,M14,1.84 µM
same,Total growth inhibition (TGI),M14,3.69 µM
same,GI50,CCRF-CEM,0.92 µM
same,Total growth inhibition (TGI),CCRF-CEM,> 100 µM
same,CC50,CCRF-CEM,> 100 µM
same,GI50,SR,2.53 µM
same,Total growth inhibition (TGI),SR,> 100 µM
same,CC50,SR,> 100 µM
same,GI50,SN12C,1.67 µM
same,Total growth inhibition (TGI),SN12C,3.57 µM
same,CC50,SN12C,7.61 µM
same,GI50,SNB-75,1.69 µM
same,Total growth inhibition (TGI),SNB-75,2.87 µM
same,CC50,SNB-75,5.87 µM
same,GI50,BT-549,1.49 µM
same,Total growth inhibition (TGI),BT-549,3.37 µM
same,GI50,SNB-19,1.4 µM
same,GI50,HT29,1.69 µM
same,Total growth inhibition (TGI),HT29,4.64 µM
same,CC50,HT29,> 100 µM
same,GI50,TK-10,1.33 µM
same,Total growth inhibition (TGI),TK-10,2.74 µM
same,GI50,COLO 205,2.3 µM
same,Total growth inhibition (TGI),COLO 205,5.58 µM
same,Total growth inhibition (TGI),A549/ATCC,36.3 µM
same,GI50,A549/ATCC,3.57 µM
same,CC50,A549/ATCC,> 100 µM
same,GI50,PC-3,2.07 µM
same,Total growth inhibition (TGI),PC-3,> 100 µM
same,CC50,PC-3,> 100 µM
same,GI50,UACC-62,1.68 µM
same,Total growth inhibition (TGI),UACC-62,3.27 µM
same,CC50,UACC-62,6.39 µM
same,GI50,OVCAR-8,1.95 µM
same,Total growth inhibition (TGI),OVCAR-8,4.97 µM
same,CC50,OVCAR-8,> 100 µM
same,GI50,UO-31,1.99 µM
same,Total growth inhibition (TGI),UO-31,4.17 µM
same,CC50,UO-31,5.6 µM
same,GI50,NCI/ADR-RES,1.83 µM
same,Total growth inhibition (TGI),NCI/ADR-RES,4.24 µM
same,CC50,NCI/ADR-RES,9.87 µM
same,GI50,MALME-3M,1.82 µM
same,Total growth inhibition (TGI),MALME-3M,3.41 µM
same,GI50,SK-MEL-2,1.77 µM
same,Total growth inhibition (TGI),SK-MEL-2,3.25 µM
same,GI50,UACC-257,1.8 µM
same,Total growth inhibition (TGI),UACC-257,3.63 µM
same,Total growth inhibition (TGI),NCI-H522,3.12 µM
same,GI50,NCI-H522,1.58 µM
same,CC50,NCI-H522,6.17 µM
same,Total growth inhibition (TGI),HOP-62,4.95 µM
same,GI50,HOP-62,2.36 µM
same,CC50,HOP-62,> 100 µM
same,Total growth inhibition (TGI),SW-620,> 100 µM
same,CC50,SW-620,> 100 µM
same,GI50,OVCAR-4,2.03 µM
same,Total growth inhibition (TGI),OVCAR-4,5.15 µM
same,CC50,OVCAR-4,> 100 µM

# — PMC12298351, “Novel 3,19-(N-Phenyl-3-(4-fluorophenyl)-pyrazole) Acetal of Andrographolide Promotes Cell Cycle Arrest and Apoptosis in MDA-MB-231 Breast Cancer Cells” (Pharmaceuticals, 2025)
